# Columns and labels:
# Type in all cases: cell-based
# [1] = biological target: T1, indoleamine 2, 3-dioxygenase (IDO1) (Homo sapiens, UniProt P14902); assay: IDO1 PBMC RapidFire MS assay (kynurenine detection by mass spectrometry); parameters: to induce the expression of indoleamine 2, 3-dioxygenase (IDO1); host or cells: human PBMC stimulated with IFN-gamma and LPS; conditions: human PBMC stimulated with IFN-γ and LPS, 2 days, pIC50, read-out: PBMC PXC50 (converted)
# Outline: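 Kynurenine output, read by RapidFire mass spectrometry as ratio to an internal standard, was measured after 2-day compound exposure (11-point, 3-fold dilutions) of human PBMCs induced with 100 ng/ml IFN-γ and 50 ng/ml LPS. Cell viability tracked alongside via ATP luminescence; XC50 from curve fitting.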
# [2] = system: human epithelial HeLa cells; assay: HeLa cytotoxicity assay (CellTiter-Glo); conditions: pCC50
# Outline: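 Read-out is CellTiter-Glo luminescence after 2 days at 37 °C, on IFN-γ-stimulated (10 nM) HeLa cells seeded at 5,000/well with compounds in 11-point 3-fold dose series. pCC50 from four-parameter curve fit; wells without cells set 100% cytotoxicity, stimulated cells with DMSO set 0%.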
# [3] = biological target: T1, indoleamine 2, 3-dioxygenase (IDO1); assay: IDO1 HeLa RapidFire MS assay (kynurenine detection by mass spectrometry); parameters: to induce the expression of indoleamine 2, 3-dioxygenase (IDO1); conditions: HeLa cells, pIC50, read-out: IDO1_HELA_PXC50 (converted)
# Outline: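 Compound potency reported as pIC50 from kynurenine/internal-standard ratio (RapidFire MS) in supernatant of IFN-γ-induced (10 nM) HeLa cells, 5,000 per well, after 2 days' treatment with 11-point dilutions. Cytotoxicity in the same format by luminescent ATP detection, reported as pCC50.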
# [4] = system: human peripheral blood mononuclear cells (PBMC); assay: PBMC cytotoxicity assay (CellTiter-Glo); conditions: 2 days, pCC50
# Outline: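 % cytotoxicity was taken from CellTiter-Glo luminescence, using wells without cells and stimulated DMSO wells as references, and fitted by four-parameter curve to give XC50. Cells were human PBMC at 50,000 per well, activated with 100 ng/ml IFN-γ plus 50 ng/ml LPS. Incubation with 11-point, 3-fold dilution series ran for 2 days at 37 °C.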
# T1 sequence (P14902 whole entry): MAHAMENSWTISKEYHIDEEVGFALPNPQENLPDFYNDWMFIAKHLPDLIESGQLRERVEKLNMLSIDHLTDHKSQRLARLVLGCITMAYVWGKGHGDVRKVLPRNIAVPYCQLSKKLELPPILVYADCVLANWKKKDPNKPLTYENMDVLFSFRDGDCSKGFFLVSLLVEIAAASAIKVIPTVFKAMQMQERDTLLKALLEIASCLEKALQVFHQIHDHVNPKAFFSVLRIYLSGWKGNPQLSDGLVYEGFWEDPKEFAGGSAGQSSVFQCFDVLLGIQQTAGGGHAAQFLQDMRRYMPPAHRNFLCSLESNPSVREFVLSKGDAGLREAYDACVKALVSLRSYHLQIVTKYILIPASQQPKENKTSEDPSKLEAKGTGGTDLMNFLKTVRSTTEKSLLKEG
smiles,measurement,setting,value
"CC(C)CN(c1ccc(C(C)OCC(=O)O)cc1Nc1nc2ccccc2[nH]1)C1CCCCC1 (stereo not shown) [example 173, 2-(1-{3-[(1H-1,3-benzodiazol-2-yl)amino]-4-[cyclohexyl(2-methylpropyl)amino]phenyl}ethoxy)acetic acid]",IC50,[1],25.1 nM
same,HELA_IDO1_TOX_PXC50,[2],<5
same,IC50,[3],20 nM
same,PBMC TOX PXC50,[4],<5
"COc1ccc2[nH]c(Nc3cc(-c4ccccc4C(=O)O)ccc3N(CC(C)C)C3CCCCC3)nc2c1 [example 287, 4′-[cyclohexyl(2-methylpropyl)amino]-3′-[(5-methoxy-1H-1,3-benzodiazol-2-yl)amino]-[1,1′-biphenyl]-2-carboxylic acid]",IC50,[1],7.94 nM
same,HELA_IDO1_TOX_PXC50,[2],<5
same,IC50,[3],7.94 nM
same,PBMC TOX PXC50,[4],<5
"CC(C)CN(c1ccc(-c2ccccc2C(=O)O)cc1Nc1nc(C(F)(F)F)cs1)C1CCCCC1 [example 299, 4′-[cyclohexyl(2-methylpropyl)amino]-3′-{[4-(trifluoromethyl)-1,3-thiazol-2-yl]amino}-[1,1′-biphenyl]-2-carboxylic acid]",IC50,[1],6.31 nM
same,HELA_IDO1_TOX_PXC50,[2],<5
same,IC50,[3],15.8 nM
same,PBMC TOX PXC50,[4],<5
"CC(C)CN(c1ccc(C(C)CC(=O)O)cc1NC1=NC(=O)[C@@H](c2ccccc2)N1)C1CCCCC1 (stereo partly drawn) [example 155, 3-{4-[cyclohexyl(2-methylpropyl)amino]-3-{[(5R)-4-oxo-5-phenyl-4,5-dihydro-1H-imidazol-2-yl]amino}phenyl}butanoic acid]",IC50,[1],1580 nM
same,HELA_IDO1_TOX_PXC50,[2],<5
same,IC50,[3],1000 nM
same,PBMC TOX PXC50,[4],<5
"CC(C)CN(c1ccc([C@H](C)CC(=O)O)cc1Nc1cnc(C(F)(F)F)nc1)C1CCOCC1 [Example 9, (R)-3-(4-(isobutyl(tetrahydro-2H-pyran-4-yl)amino)-3-((2-(trifluoromethyl)pyrimidin-5-yl)amino)phenyl)butanoic Acid]",IC50,[1],1 nM
same,HELA_IDO1_TOX_PXC50,[2],<5
same,IC50,[3],2.51 nM
same,PBMC TOX PXC50,[4],<5
"CC(C)CN(c1ccc(C(C)CC(=O)O)cc1Nc1nc(C(F)(F)F)ns1)C1CCOCC1 (stereo not shown) [example 202, 3-{4-[(2-methylpropyl)(oxan-4-yl)amino]-3-{[3-(trifluoromethyl)-1,2,4-thiadiazol-5-yl]amino}phenyl}butanoic acid]",IC50,[1],1.58 nM
same,HELA_IDO1_TOX_PXC50,[2],<5
same,IC50,[3],3.16 nM
same,PBMC TOX PXC50,[4],<5
"CC(C)CN(c1ccc(C(C)(C)CC(=O)O)cc1Nc1nc(Cl)ns1)C1CCCCC1 [Example 2, 3-(3-((3-chloro-1,2,4-thiadiazol-5-yl)amino)-4-(cyclohexyl(isobutyl)amino)phenyl)-3-methylbutanoic Acid]",IC50,[1],1.58 nM
same,HELA_IDO1_TOX_PXC50,[2],<5
same,IC50,[3],7.94 nM
same,PBMC TOX PXC50,[4],<5
"Cc1nsc(Nc2cc(-c3ccccc3C(=O)O)ccc2N(CC(C)C)CC(C)C)n1 [example 286, 4′-[bis(2-methylpropyl)amino]-3′-[(3-methyl-1,2,4-thiadiazol-5-yl)amino]-[1,1′-biphenyl]-2-carboxylic acid]",IC50,[1],200 nM
same,HELA_IDO1_TOX_PXC50,[2],<5
same,IC50,[3],501 nM
same,PBMC TOX PXC50,[4],<5
"CC(C)CN(c1ccc([C@H](C)CC(=O)O)cc1Nc1ccc(Cl)cn1)C1CCCCC1 [Example 75, (R)-3-(3-((5-chloropyridin-2-yl)amino)-4-(cyclohexyl(isobutyl)amino)phenyl)butanoic Acid]",IC50,[1],1.58 nM
same,HELA_IDO1_TOX_PXC50,[2],<5
same,IC50,[3],3.16 nM
same,PBMC TOX PXC50,[4],<5
"CC(C)CN(c1ccc([C@H](C)CC(=O)O)cc1Nc1ccc(Cl)nc1)[C@H]1CC[C@H](O)CC1 [Example 49, (R)-3-(3-((6-chloropyridin-3-yl)amino)-4-(((1r,4R)-4-hydroxycyclohexyl) (isobutyl)amino)phenyl)butanoic Acid]",IC50,[1],2 nM
same,HELA_IDO1_TOX_PXC50,[2],<5
same,IC50,[3],6.31 nM
same,PBMC TOX PXC50,[4],<5

# — US10899754B2, “Modulators of indoleamine 2,3-dioxygenase” (GLAXOSMITHKLINE INTELLECTUAL PROPERTY DEVELOPMENT LIMITED, priority 2016, dated 2021)
